Measured values from patent US9381349B2, “Apparatus for treating cerebral neurovascular disorders including headaches by neural stimulation” (priority 1997, dated 2016).
Entries after “also recorded” stand apart in the source; their conditions may differ. Like-named read-outs stand apart in the source and are kept apart here.

Experiments:
tinnitus = assay: Inhibition of tinnitus by dorsonasal administration of ropivacaine (Example 4); type: in vivo, human
Excerpt: Ropivacaine was dorsonasally administered to each of three patients using the nasal spray method or the nasal drops method described herein.

acute migraine episodes = type: in vivo, human; design: key to Pain Rating After Administration: 0 = no pain, 10 = worst pain imaginable; details: for Mean Time Until Maximal Effect: no unit in table (minutes); for Pain Rating After Administration / Pain Relief: mean; for Pain Rating After Administration / Pain Relief / Rate of Pain Relief (migraine pain reduction per minute per gram of drug): 10-point pain scale
Excerpt: The purpose of the experiments described in this Example was to determine the efficacy of dorsonasal administration of ropivacaine for inhibition of acute migraine episodes. Ropivacaine was dorsonasally administered to individual patients experiencing head pain, other symptoms, or both, believed to be associated with an acute migraine episode. Patients assessed head pain prior to and after ropivacaine administration.
Ropivacaine-HCl (NAROPINT™, Astra USA, Westborough, Mass.) was used as the commercially-available 0.75% (w/v) solution, and was obtained in 30 milliliter, sterile injectable vials.
Three methods were used to achieve dorsonasal delivery of ropivacaine to individual patients. Ropivacaine was administered to a first group of patients by an intranasal drip method. Ropivacaine was administered to a second group using cotton swabs, the absorbent portions of which were saturated with the ropivacaine solution. Ropivacaine was administered to patients in a third group by spraying the ropivacaine solution into each nostril, using either a squeeze-type spray bottle or a metered-dose spray bottle.
The intranasal drip method used to administer ropivacaine to the first group of patients was a based on the method described by Barre (1982, Headache 22:69-73), except that the ropivacaine solution was used in place of the solution used by Bane. Approximately 0.75 milliliter to approximately 1.0 milliliter of the ropivacaine solution was administered by way of each of the nostrils of each patient.
The cotton swab method used to administer ropivacaine to the second group of patients comprised gently inserting cotton swabs, sequentially and bilaterally, into the nostrils of patients and urging the swabs dorsally until their absorbent portions contacted portions of nasal epithelium located dorsal to the middle conchae. Each swab was left in place for approximately one minute, and was then withdrawn. Approximately 0.5 milliliter of the ropivacaine solution was delivered to each nostril using this method.
Patients in a third group were administered ropivacaine by spraying less than about 0.5 milliliter of the ropivacaine solution into each of the patient's nostrils using either a sterile squeeze bottle or a sterile metered-dose spray bottle of known design. The design and operation of each of these spray bottles are well known in the art.
Prior to administration of ropivacaine, each patient was placed in a supine position with the patient's head hyperextended approximately 45 degrees and rotated approximately 30 degrees to the right side. In this position, an imaginary line extending from the region of the nasal epithelium overlying the SPG of the patient through the patient's left nostril was approximately vertical. Ropivacaine was then administered to the left nostril of the patient as described for each of the three groups of patients. Ropivacaine was administered to each patient's right nostril after rotating the patient's head approximately 30 degrees to the left. Ropivacaine was administered to both nostrils of each patient to prevent cases of unilateral migraine from developing into contralateral migraine.
Prior to ropivacaine administration, each patient rated perceived headache pain according to a standard pain scale of the type used in the art. Patients were asked to rank the severity of pain which they were experiencing on a scale from 0 (no pain) to 10 (worst pain imaginable). This ten-point pain rating scale is analogous to, but has more gradations than, the four-point rating system used by the International Headache Society (IHS; Headache Classification Committee of the International Headache Society, 1988, Cephalalgia 8(Suppl. 7):19-28). Ropivacaine was administered to one nostril of each patient, and then to the other. The time required to administer ropivacaine to both nostrils of each patient was approximately three minutes. […]

[1] = cited from earlier work
[2] = in vivo; cited from earlier work
nerve structure = details: in vivo; cited from earlier work
[3] = patient 4-3, 1 milliliter 0.75% (w/v) per nostril, nasal drop
[4] = ropivacaine 0.75% (w/v), 2 Metered Sprays per nostril, individual patients, pain scale 0-10
[5] = ropivacaine 0.75% (w/v), 2 Sprays per nostril (squeeze bottle), individual patients, pain scale 0-10
[6] = ropivacaine 0.75% (w/v), 2 cc Drops (nasal drip), individual patients, pain scale 0-10
[7] = ropivacaine 0.75% (w/v), Sat'd Cotton Swab, individual patients, pain scale 0-10
[8] = ropivacaine 0.75% (w/v), Sat'd Cotton Swab, individual patients, pain scale 0-10, listed as R
[9] = ropivacaine vs literature rizatriptan data (Kramer et al.)
[10] = ropivacaine, Cotton Swab, 24 patients
[11] = ropivacaine, Nasal Drops, 3 patients
[12] = ropivacaine, Nasal Spray, 10 patients
[13] = ropivacaine, nasal drops, three patients

SMILES: CCCN1CCCC[C@H]1C(=O)Nc1c(C)cccc1C [Ropivacaine, ropivacaine]
- Time to relief of head pain and tinnitus symptoms (tinnitus; patient 4-1, dorsonasal spray): within about five minutes
- Decrease in head pain (tinnitus; patient 4-2, dorsonasal spray, non-neurovascular chronic head pain): about 2 points
- Reduction in tinnitus symptoms, right ear (tinnitus; [3]): 50-75%
- Tinnitus symptoms, left ear (tinnitus; [3]): complete relief
- Inhibition of tinnitus, patients (tinnitus; three patients, nasal spray or nasal drops): All three patients experienced inhibition of tinnitus
- Adverse effects of administration (acute migraine episodes; human, in vivo): one patient experienced an allergic response to ropivacaine administration
- Apparent allergic reaction (acute migraine episodes; human, in vivo): allergic reaction between 5
- Oropharyngeal numbness (acute migraine episodes; human, in vivo): 6
- Time to half maximal inhibition of CNvD or symptom (acute migraine episodes; intranasal or dorsonasal administration): within about three minutes
- Pain 10 min post-treatment (acute migraine episodes; [4]): Pain 10 min post-treatment: 0
- Pain 15 min post-treatment (acute migraine episodes; [4]): Pain 15 min post-treatment: 5
- Pain 20 min post-treatment (acute migraine episodes; [4]): Pain 20 min post-treatment: 3
- Pain 45 min post-treatment (acute migraine episodes; [4]): Pain 45 min post-treatment: 0
- Pain 60 min post-treatment (acute migraine episodes; [4]): Pain 60 min post-treatment: 2
- Pain 90 min post-treatment (acute migraine episodes; [4]): Pain 90 min post-treatment: 0
- Pain 2 min post-treatment (acute migraine episodes; [5]): Pain 2 min post-treatment: 0
- Pain 10 min post-treatment (acute migraine episodes; [5]): Pain 10 min post-treatment: 0
- Pain 15 min post-treatment (acute migraine episodes; [5]): Pain 15 min post-treatment: 2
- Pain 20 min post-treatment (acute migraine episodes; [5]): 0
- Pain 30 min post-treatment (acute migraine episodes; [5]): 0
- Pain 3 min post-treatment (acute migraine episodes; [6]): Pain 3 min post-treatment: 0
- Pain 60 min post-treatment (acute migraine episodes; [6]): Pain 60 min post-treatment: 0
- Pain 15 min post-treatment (acute migraine episodes; ropivacaine 0.75% (w/v), 2 cc Drops (nasal drip), individual patients, pain scale 0-10, listed as R): Pain 15 min post-treatment: 0; also recorded: Pain 15 min post-treatment: 5
- Persistence of residual pain (acute migraine episodes; ropivacaine 0.75% (w/v), Sat'd Cotton Swab, P#40): Level 5 pain endured 8 hours
- Pain 1 min post-treatment (acute migraine episodes; [7]): Pain 1 min post-treatment: 0
- Pain 8 min post-treatment (acute migraine episodes; [7]): Pain 8 min post-treatment: 0
- Pain 15 min post-treatment (acute migraine episodes; [7]): Pain 15 min post-treatment: 0
- Pain 30 min post-treatment (acute migraine episodes; [7]): Pain 30 min post-treatment: 5
- Pain 18 hrs post-treatment (acute migraine episodes; [7]): Pain 18 hrs post-treatment: 8
- Pain 24 hours post-treatment (acute migraine episodes; [7]): Pain 24 hours post-treatment: 1
- Pain 2 min post-treatment (acute migraine episodes; [8]): Pain 2 min post-treatment: 1; also recorded: Pain 2 min post-treatment: 0
- Pain 3 min post-treatment (acute migraine episodes; [8]): Pain 3 min post-treatment: 0; also recorded: Pain 3 min post-treatment: 1
- Pain 5 min post-treatment (acute migraine episodes; [8]): Pain 5 min post-treatment: 0; also recorded: Pain 5 min post-treatment: 1; also recorded: Pain 5 min post-treatment: 2
- Pain 10 min post-treatment (acute migraine episodes; [8]): Pain 10 min post-treatment: 1; also recorded: Pain 10 min post-treatment: 0
- Pain 20 min post-treatment (acute migraine episodes; [8]): Pain 20 min post-treatment: 3; also recorded: Pain 20 min post-treatment: 0
- Patients with significant pain reduction (acute migraine episodes; ropivacaine 0.75% (w/v), cotton swab): 100%
- Effectiveness to reduce pain associated with migraine (acute migraine episodes; ropivacaine 0.75% (w/v), dorsonasal spray): 100%
- Pain following spray (acute migraine episodes; ropivacaine 0.75% (w/v), retreated with 2 Sprays 18 hrs after swab treatment (P#14), pain scale 0-10): 0
- Response rate compared with lidocaine (FIG. 3) (acute migraine episodes; ropivacaine vs literature lidocaine data (Maizels et al.)): nearly two-fold greater response rate
- Rebound rate compared with rizatriptan (acute migraine episodes; [9]): lower than the rebound rate following rizatriptan administration
- Response rate compared with rizatriptan (acute migraine episodes; [9]): greater than the response rate obtained by administration of rizatriptan
- Onset of relief and response rate compared with sumatriptan (FIG. 3) (acute migraine episodes; ropivacaine vs literature subcutaneous sumatriptan data): earlier onset of relief and a higher response rate
- Mean Reduction in Pain Rating (acute migraine episodes; [10]): 8.64 IHS points
- Mean Time Until Maximal Effect (acute migraine episodes; [10]): 7.41
- Pain Rating After Administration (acute migraine episodes; ropivacaine, Cotton Swab): 0.33
- Pain Relief (acute migraine episodes; ropivacaine, Cotton Swab): 8.73
- Rebound Rate (acute migraine episodes; ropivacaine, Dorsonasal Spray): 10%
- Relative Efficacy (Rate of Pain Relief divided by that of intranasally spray-administered lidocaine) (acute migraine episodes; ropivacaine, Dorsonasal Spray): 2.45
- Rate of Pain Relief (migraine pain reduction per minute per gram of drug) (acute migraine episodes; ropivacaine, Dorsonasal Spray): 24.5
- Rebound Rate (acute migraine episodes; ropivacaine, Dorsonasal Swab): 4%
- Relative Efficacy (Rate of Pain Relief divided by that of intranasally spray-administered lidocaine) (acute migraine episodes; ropivacaine, Dorsonasal Swab): 15.5
- Rate of Pain Relief (migraine pain reduction per minute per gram of drug) (acute migraine episodes; ropivacaine, Dorsonasal Swab): 155
- Rate of Pain Relief (acute migraine episodes; ropivacaine, Nasal Drops): 1.25 IHS points per minute
- Mean Reduction in Pain Rating (acute migraine episodes; [11]): 9.00 IHS points
- Mean Time Until Maximal Effect (acute migraine episodes; [11]): 26.0
- Pain Rating After Administration (acute migraine episodes; ropivacaine, Nasal Drops): 0.00
- Pain Relief (acute migraine episodes; ropivacaine, Nasal Drops): 9.00
- Rate of Pain Relief (acute migraine episodes; ropivacaine, Nasal Spray): 0.287 IHS points per minute
- Mean Reduction in Pain Rating (acute migraine episodes; [12]): 6.22 IHS points
- Mean Time Until Maximal Effect (acute migraine episodes; [12]): 33.9
- Pain Rating After Administration (acute migraine episodes; ropivacaine, Nasal Spray): 1.00
- Pain Relief (acute migraine episodes; ropivacaine, Nasal Spray): 6.22
- Patients with complete relief (acute migraine episodes; ropivacaine, all routes): 72%
- Patients with migraine inhibited / significant (greater than 50%) reduction of migraine severity (acute migraine episodes; ropivacaine, all routes, thirty-seven migraine patients): 92%
- Average reduction in perceived pain (acute migraine episodes; ropivacaine, all routes, within one hour, usually within 15 minutes or less): 90%
- Rebound of migraine, patients (acute migraine episodes; ropivacaine, all routes, within twenty-four hours of treatment): 5.4%
- Mean time between treatment and perception of the peak effect (acute migraine episodes; ropivacaine, cotton swab): 7.41 ± 1.47 min
- Patients achieving a pain severity rating of zero (acute migraine episodes; ropivacaine, cotton swab): 72%
- Patients achieving a pain severity rating of zero or one (acute migraine episodes; ropivacaine, cotton swab): 95%
- Patients with rebound (acute migraine episodes; ropivacaine, cotton swab): 4%
- Rate of Pain Relief (acute migraine episodes; ropivacaine, cotton swab): 2.32 IHS points per minute
- Mean peak headache severity rating reduction (acute migraine episodes; ropivacaine, cotton swab, twenty-four patients): 8.73±0.249 points
- Mean post-administration pain severity rating at the time of peak effect (acute migraine episodes; ropivacaine, cotton swab, twenty-four patients, mean±standard error, out of 10 points): 0.33±0.14 points
- Potency relative to intranasally spray-administered lidocaine (pain relief per unit weight) (acute migraine episodes; ropivacaine, dorsonasally spray-administered): 2.4 times
- Potency relative to intranasally spray-administered lidocaine (pain relief per unit weight) (acute migraine episodes; ropivacaine, dorsonasally swab-administered): more than 15 times
- Mean time between treatment and perception of the peak effect (acute migraine episodes; [13]): 26.00 ± 17.37 min
- Migraine rebound (acute migraine episodes; [13]): None of the three patients experienced migraine rebound
- Mean peak headache severity rating reduction (acute migraine episodes; ropivacaine, nasal drops, three patients, out of 10 points): 9.00 points
- Mean time between treatment and perception of the peak effect (acute migraine episodes; ropivacaine, nasal spray, ten patients): 33.9 ± 8.48 min
- Mean peak headache severity rating reduction (acute migraine episodes; ropivacaine, nasal spray, ten patients, out of 10 points): 6.22±0.66 points
- Mean headache pain severity rating reduction in patients without complete relief (acute migraine episodes; ropivacaine, nasal spray, the remainder of ten patients): 87.5±6.49%
- Patients without rebound (acute migraine episodes; ropivacaine, patients observed for up to seven days): 95%
- Proportion bound to protein in vivo [1]: Approximately 95%
- Cardiotoxicity [2]: this side effect is not exhibited
- Cardiovascular and central nervous system toxicity [2]: lower cardiovascular and central nervous system toxicity than bupivacaine
- Anesthetic effect of 0.75% (w/v) ropivacaine-HCl relative to lidocaine (nerve structure): approximately equivalent to that of 3% (w/v) lidocaine
